From patent US7534769B2, “Compositions and methods for enhancing delivery of therapeutic agents to cells” (Canji, Inc., priority 1996, dated 2009)

Experiments:
bladder epithelium [1] = experiment: rAd-βgal gene transfer to bladder epithelium in detergent formulations, Xgal staining score and gross pathology
Method: rAd-βgal was formulated in different detergents at their critical micellization concentration to evaluate efficiency of gene transfer to the bladder epithelium. Female rats (about 200 g b/w, Harlan Sprague Dawley) were anesthetized with isoflurane and received a single intravesical administration of rAd-βgal (1×10^11 PN/ml) in different detergent formulations (see Table I). Before instillation, bladders were flushed with PBS and then emptied. rAd-βgal was then instilled in a volume of 0.5 ml. The instilled solution was retained in the bladder for 45 minutes. The bladders were then flushed with PBS, and the animals were permitted to recover from the procedure. 48 hours after administration, the rats were sacrificed, the bladders harvested, and fixed in formalin. After fixation, the bladders were opened longitudinally so that the urothelium was exposed to the chromogen (Xgal), that is converted to a blue color, if reporter gene (β-galactosidase) expression is present. The luminal epithelial surface of the whole bladder was photographed an blue staining scored: + (minimal staining), ++ (moderate staining), +++ intense staining covering the whole bladder epithelial surface.
Briefly, in anaesthetized female rats rAd-βgal (1×10^11 PN/ml) was administered into the bladder via an intravesical catheter. rAd-βgal was formulated in different concentrations of Big CHAP (CALBIOCHEM®). A volume of 0.5 ml was injected and remained instilled in the bladder for 45 minutes. The animals were sacrificed 48 hours later, the bladder fixed in 4% formalin/glutaraldehyde, opened longitudinally, and the β-galactosidase enzyme activity measured using Xgal substrate. The intensity of blue staining correlates with the βgal-transgene expression.
Effects of higher recombinant adenovirus concentrations were also tested. Briefly, in anaesthetized female rats different concentrations of rAd-βgal, formulated in 7 mM Big CHAP (CALBIOCHEM®) were administered into the bladder via an intravesical catheter. The animals were sacrificed 48 hours later, the bladder fixed in 4% formalin/glutaraldehyde, opened longitudinally, and Xgal stained.

[2] = test system: bladder, kidney and liver homogenates; experiment: ACNRB transgene expression by RT-PCR after intravesical administration; type: in vivo, mouse; conditions: ACNRB 4×10^10 PN/mL in 22% (v/v) ethanol or 3 mM Big CHAP versus VPBS, 48 hours
Method: After the virus was retained in the bladder for 45 minutes, the animals were permitted to recover and void. […] Following amplification (30 cycles) RT-PCR products were separated on a 10% polyacrylamide gel, stained with ethidium bromide, and photographed. […] Untreated samples and bladder samples without the reverse transcriptase (RT) provided controls for contaminating DNA.
The instilled material was retained in the bladder for approximately 45 minutes, and animals were permitted to recover from the procedure. Mice were sacrificed 1, 2, 3, 4, 5, 6, 7, and 14 days after administration (N=4/time) for analysis. Bladders, livers, and kidneys were harvested and snap frozen in liquid nitrogen for subsequent analysis.
After the virus was retained in the bladder for 45 minutes, the animals were permitted to recover. […] Transgene expression was determined using RT-PCR. Tissues were rinsed in RNAse free water, homogenized, digested in Tri-Reagent (Molecular Research Center), and total cellular RNA extracted. […] RT-PCR was performed in the Perkin Elmer 9600 GeneAmp PCR System. Cycling conditions were 10 min at 65° C., 8 min at 50° C., 5 min at 95° C. 32 cycles of PCR were performed, each cycle consisting of 30 sec at 94° C., 30 sec at 58° C., and 30 sec at 72° C. The 32nd cycle included a 10 min elongation step at 72° C. to ensure full extension of incomplete DNA fragments.

bladder epithelium [3] = experiment: Effect of Big CHAP sources, purified Big CHAP and impurities on rAd-βgal gene transfer to bladder epithelium; type: in vivo, rat; conditions: Big CHAP at 6 mg/ml
Method: Alternate commercial sources of Big CHAP (BC) were tested for the ability to enhance rAd (recombinant adenovirus) mediated gene transfer and expression, essentially according to the method described above in Example 8.
The results are depicted in FIG. 17.
rAd-βgal was formulated in 30 mg/ml of the column chromatography purified material of both BCs and gene transfer to the bladder epithelium tested as described above.
Three impurities of BC (CALBIOCHEM®) were detected by TLC (FIG. 15) and isolated by column chromatography for gene transfer studies. Impurity I and a mixture of impurity II and impurity III were diluted in VPBS (0.6 mg/ml or 6 mg/ml) to test their efficiency in improving rAd mediated gene transfer to the bladder epithelium. […] Positive control formulation (BC, CALBIOCHEM®, upper panel, left), and the negative control formulations (BC—CALBIOCHEM®, column chromatography purified and BC—Sigma) were used at a concentration of 6 mg/ml (upper panel, right).
In this experiment, 10 mg/ml of BC (Sigma, FIG. 20 upper middle panel) was reconstituted with Impurity III (upper right panel), impurity II (lower left panel), or synthesized analog of impurity III (lower right panel). rAd-βgal, 1×10^11 PN/ml, was prepared in the spiked formulations and administered intravesically as described above.
Calbiochem Big CHAP was fractionated by column chromatography to obtain essentially pure impurities “1”, “2”, and “3” for biological testing as well as structural analysis.

bladder tumor tissue = experiment: Gene transfer to BBN-induced bladder tumors (transitional cell carcinoma model); type: in vivo, rat; conditions: rAd-βgal 1×10^11 PN/ml in 4 mM Big CHAP compared to VPBS, 48 hr
Method: Because initial investigations focused on animals with intact bladder epithelium, evaluated adenovirus mediated gene transfer in an animal model of transitional cell carcinoma was also studied. Tumors were induced in male Fisher rats by addition of 0.05% BBN in the drinking water for six months. rAd-βgal (1×10^11 PN/ml), formulated in 4 mM Big CHAP (CALBIOCHEM®) or VPBS was instilled into the bladder for 45 minutes by direct injection. β-gal expression was evaluated 48 hr after treatment. Consistent with earlier experiments using non-tumor bearing animals, gene transfer to tumor tissue was improved with the Big CHAP (CALBIOCHEM®) formulation compared to the VPBS formulation (FIG. 10).
Gene transfer of rAd carrying the p53 gene (rAd-p53) (Wills et al., Human Gene Therapy 5:1079-1088 (1994)) was also tested in this animal model of bladder cancer. Briefly, bladder tumors were induced in female Fisher rates (Charles River) by addition of 0.05% BBN (N-butyl-N-N(4-hydroxybutyl)nitrosamine) in the drinking water for three months. rAd-p53 (1×10^11 PN/ml) was formulated in 7 mM Big CHAP (CALBIOCHEM®). Under isoflurane anesthesia a catheter (24G) was inserted into the bladder for administration. rAd-p53 was instilled into the bladder for 45 minutes. The animals were then allowed to recover from anesthesia. […] No staining was detected in tumor tissue from untreated animals.

bladder tissue = experiment: Cystitis evaluation of formulations in mice, bladder histopathology; conditions: 80 μL intravesical, 7-day interval; 7 mM Big CHAP, 0.05 mM TRITON X-100 or 22% ethanol
Method: The formulations were administered intravesically in a volume of 80 μL, and animals were observed over a 7-day interval. After sacrifice, bladders were paraffin-embedded, sectioned, and stained with hematoxylin and eosin for pathologic evaluation.

pig urothelium = experiment: rAd-βgal gene transfer in chronically catheterized adult pig bladder; type: in vivo
Method: To simulate volumes expected for clinical investigation, the 7 mM Big CHAP (CALBIOCHEM®) formulation was tested in a chronically catheterized adult pig model in collaboration with SPRI Drug Safety and Metabolism. rAd-βgal (1×10^11 PN/ml) was formulated in VPBS or 7 mM Big CHAP (CALBIOCHEM®). A volume of 50 ml was injected via the catheter into the bladder of the conscious animals. The instilled material was retained for 2 hr. The animals were sacrificed 48 hr later, and a central section of the bladder was harvested and stained for β-galactosidase expression.

C[C@H](CCC(=O)N(CCCNC(=O)[C@H](O)[C@@H](O)[C@H](O)[C@H](O)CO)CCCNC(=O)[C@H](O)[C@@H](O)[C@H](O)[C@H](O)CO)[C@H]1CC[C@H]2[C@@H]3[C@H](O)C[C@@H]4C[C@H](O)CC[C@]4(C)[C@H]3C[C@H](O)[C@]12C [Big CHAP (CALBIOCHEM®), N,N,bis-(3-D-gluconamidopropyl)-cholamide]
cystitis (bladder epithelium [1]; 17.5 mM Big CHAP): induced cystitis in some of the animals tested | gene transfer or expression (bladder epithelium [1]; 17.5 mM Big CHAP): did not notably improve gene transfer or expression | gene transfer (bladder epithelium [1]; 3.5-7 mM Big CHAP): significantly improved gene transfer | cystitis (bladder epithelium [1]; Big CHAP formulation that enhanced gene transfer): minimal cystitis | gene transfer to the bladder epithelium (Table I) (bladder epithelium [1]; detergents at their critical micellization concentration): enhanced gene transfer dramatically | gene transfer to the epithelium, dependence on Big CHAP concentration (bladder epithelium [1]; rAd-βgal 1×10^11 PN/ml, different concentrations of Big CHAP): concentration-dependent increase of gene transfer | β-galactosidase expression, 3.5 mM compared with 7 mM formulation (bladder epithelium [1]; rat, in vivo): similar | ACNRB expression in bladder (RT-PCR) [2]: enhanced expression | rAd mediated gene transfer and expression (bladder epithelium [3]; listed as BC (CALBIOCHEM®)): did substantially enhance gene transfer and expression | rAd mediated gene transfer and expression (bladder epithelium [3]; listed as Big CHAP from CALBIOCHEM®): greater enhancement of gene transfer | gene transfer to tumor tissue (bladder tumor tissue): improved | macrophage infiltration into the bladder tissue / cystitis (bladder tissue): Only a slight macrophage infiltration | transduction of epithelial layers (histologic evaluation) (pig urothelium; 7 mM Big CHAP): transduction of several epithelial layers | intensity of gene expression (β-galactosidase) (pig urothelium; rAd-βgal 1×10^11 PN/ml, 7 mM Big CHAP compared to VPBS, 50 ml, 2 hr, 48 hr): An increase in the intensity of gene expression
